Where two headings read alike, the source gives them in different places.
Assays:
[1] = target: Human serotonin 5-HT6 receptor (Homo sapiens, UniProt P50406); assay: [3H]LSD binding assay on cloned 5-HT6 receptor
[2] = IC50 (nM), binding affinity to the 5-HT6 receptor, Table 2, 1.87 nM [3H]LSD, cloned human receptor membranes from Sf21 cells, 37° C. 60 min

Sequence of Human serotonin 5-HT6 receptor (P50406 whole entry): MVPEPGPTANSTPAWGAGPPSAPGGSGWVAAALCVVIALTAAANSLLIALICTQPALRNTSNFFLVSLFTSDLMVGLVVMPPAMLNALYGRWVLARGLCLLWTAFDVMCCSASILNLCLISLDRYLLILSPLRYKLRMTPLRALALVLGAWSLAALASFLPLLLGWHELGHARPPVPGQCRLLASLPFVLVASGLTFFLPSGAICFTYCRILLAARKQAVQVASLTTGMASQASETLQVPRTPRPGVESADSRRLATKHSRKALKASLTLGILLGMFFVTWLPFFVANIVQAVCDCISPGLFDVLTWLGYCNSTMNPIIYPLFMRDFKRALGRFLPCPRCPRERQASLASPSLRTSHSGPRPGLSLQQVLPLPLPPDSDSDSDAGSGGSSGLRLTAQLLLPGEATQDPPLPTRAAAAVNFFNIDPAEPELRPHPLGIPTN

Row | SMILES | IC50 [1, 2] | melting point | IC50 [1]
1 | CN1CCN(c2cc(Cl)cc3c2S(=O)(=O)N(Cc2ccc(F)cc2)C(=O)N3Cc2ccccc2)CC1 [Example 4, 4-Benzyl-6-chloro-2-(4-fluoro-benzyl)-8-(4-methyl-piperazin-1-yl)-1,1-dioxo-1,4-dihydro-2H-1λ^6-benzo[1,2,4]thiadiazin-3-one] | 5.4 nM | 112 to 113 °C | –
2 | CN1CCN(c2cc(Cl)cc3c2S(=O)(=O)N(Cc2cccc(Cl)c2)C(=O)N3Cc2ccccc2)CC1 [Example 6, 4-Benzyl-6-chloro-2-(3-chloro-benzyl)-8-(4-methyl-piperazin-1-yl)-1,1-dioxo-1,4-dihydro-2H-1λ^6-benzo[1,2,4]thiadiazin-3-one] | 5.2 nM | 87 to 88 °C | –
3 | CN1CCN(c2cc(Cl)cc3c2S(=O)(=O)N(Cc2ccccc2Br)C(=O)N3Cc2ccccc2)CC1 [Example 8, 4-Benzyl-2-(2-bromo-benzyl)-6-chloro-8-(4-methyl-piperazin-1-yl)-1,1-dioxo-1,4-dihydro-2H-1λ^6-benzo[1,2,4]thiadiazin-3-one] | 8.9 nM | 107 to 109 °C | –
4 | CN1CCN(c2cc(Cl)cc3c2S(=O)(=O)N(Cc2cccc(Br)c2)C(=O)N3Cc2ccccc2)CC1 [Example 9, 4-Benzyl-2-(3-bromo-benzyl)-6-chloro-8-(4-methyl-piperazin-1-yl)-1,1-dioxo-1,4-dihydro-2H-1λ^6-benzo[1,2,4]thiadiazin-3-one] | 2.2 nM | 96 to 98 °C | –
5 | CN1CCN(c2cc(Cl)cc3c2S(=O)(=O)N(Cc2ccc(Br)cc2)C(=O)N3Cc2ccccc2)CC1 [Example 10, 4-Benzyl-2-(4-bromo-benzyl)-6-chloro-8-(4-methyl-piperazin-1-yl)-1,1-dioxo-1,4-dihydro-2H-1λ^6-benzo[1,2,4]thiadiazin-3-one] | 6.1 nM | 115 to 116 °C | –
6 | CN1CCN(c2cc(Cl)cc3c2S(=O)(=O)N(Cc2cccc(I)c2)C(=O)N3Cc2ccccc2)CC1 [Example 11, 4-Benzyl-6-chloro-2-(3-iodo-benzyl)-8-(4-methyl-piperazin-1-yl)-1,1-dioxo-1,4-dihydro-2H-1λ^6-benzo[1,2,4]thiadiazin-3-one] | 4.4 nM | 96 to 98 °C | –
7 | CN1CCN(c2cc(Cl)cc3c2S(=O)(=O)N(Cc2ccc(I)cc2)C(=O)N3Cc2ccccc2)CC1 [Example 12, 4-Benzyl-6-chloro-2-(4-iodo-benzyl)-8-(4-methyl-piperazin-1-yl)-1,1-dioxo-1,4-dihydro-2H-1λ^6-benzo[1,2,4]thiadiazin-3-one] | 1.4 nM | 110 to 111 °C | –
8 | Cc1ccccc1CN1C(=O)N(Cc2ccccc2)c2cc(Cl)cc(N3CCN(C)CC3)c2S1(=O)=O [Example 13, 4-Benzyl-6-chloro-2-(2-methyl-benzyl)-8-(4-methyl-piperazin-1-yl)-1,1-dioxo-1,4-dihydro-2H-1λ^6-benzo[1,2,4]thiadiazin-3-one] | 1.6 nM | 148 to 150 °C | –
9 | Cc1cccc(CN2C(=O)N(Cc3ccccc3)c3cc(Cl)cc(N4CCN(C)CC4)c3S2(=O)=O)c1 [Example 14, 4-Benzyl-6-chloro-2-(3-methyl-benzyl)-8-(4-methyl-piperazin-1-yl)-1,1-dioxo-1,4-dihydro-2H-1λ^6-benzo[1,2,4]thiadiazin-3-one] | 11.6 nM | 188 to 191 °C | –
10 | Cc1ccc(CN2C(=O)N(Cc3ccccc3)c3cc(Cl)cc(N4CCN(C)CC4)c3S2(=O)=O)cc1 [Example 15, 4-Benzyl-6-chloro-2-(4-methyl-benzyl)-8-(4-methyl-piperazin-1-yl)-1,1-dioxo-1,4-dihydro-2H-1λ^6-benzo[1,2,4]thiadiazin-3-one] | 5.4 nM | 180 to 185 °C | –
11 | COc1ccccc1CN1C(=O)N(Cc2ccccc2)c2cc(Cl)cc(N3CCN(C)CC3)c2S1(=O)=O [Example 16, 4-Benzyl-6-chloro-2-(2-methoxy-benzyl)-8-(4-methyl-piperazin-1-yl)-1,1-dioxo-1,4-dihydro-2H-1λ^6-benzo[1,2,4]thiadiazin-3-one] | 4.6 nM | 93 to 94 °C | –
12 | CN1CCN(c2cc(Cl)cc3c2S(=O)(=O)N(Cc2ccccc2[N+](=O)[O-])C(=O)N3Cc2ccccc2)CC1 [Example 20, 4-Benzyl-6-chloro-8-(4-methyl-piperazin-1-yl)-2-(2-nitro-benzyl)-1,1-dioxo-1,4-dihydro-2H-1λ^6-benzo[1,2,4]thiadiazin-3-one] | 12.3 nM | 84 to 86 °C | –
13 | CN1CCN(c2cc(Cl)cc3c2S(=O)(=O)N(Cc2cccc([N+](=O)[O-])c2)C(=O)N3Cc2ccccc2)CC1 [Example 21, 4-Benzyl-6-chloro-8-(4-methyl-piperazin-1-yl)-2-(3-nitro-benzyl)-1,1-dioxo-1,4-dihydro-2H-1λ^6-benzo[1,2,4]thiadiazin-3-one] | 4.2 nM | 172 to 175 °C | –
14 | CN1CCN(c2cc(Cl)cc3c2S(=O)(=O)N(Cc2ccc([N+](=O)[O-])cc2)C(=O)N3Cc2ccccc2)CC1 [Example 22, 4-Benzyl-6-chloro-8-(4-methyl-piperazin-1-yl)-2-(4-nitro-benzyl)-1,1-dioxo-1,4-dihydro-2H-1λ^6-benzo[1,2,4]thiadiazin-3-one] | 8.1 nM | 163 to 164 °C | –
15 | COC(=O)c1ccc(CN2C(=O)N(Cc3ccccc3)c3cc(Cl)cc(N4CCN(C)CC4)c3S2(=O)=O)cc1 [Example 23, 4-[4-Benzyl-6-chloro-8-(4-methyl-piperazin-1-yl)-1,1,3-trioxo-3,4-dihydro-1H-1λ^6-benzo[1,2,4]thiadiazin-2-ylmethyl]-benzoic acid methyl ester] | 28.8 nM | 140 to 143 °C | –
16 | CN1CCN(c2cc(Cl)cc3c2S(=O)(=O)N(Cc2ccc(C#N)cc2)C(=O)N3Cc2ccccc2)CC1 [Example 24, 4-[4-Benzyl-6-chloro-8-(4-methyl-piperazin-1-yl)-1,1,3-trioxo-3,4-dihydro-2H-1λ^6-benzo[1,2,4]thiadiazin-2-ylmethyl]-benzonitrile] | 6.4 nM | 134 to 135 °C | –
17 | COc1ccccc1N1C(=O)N(Cc2ccccc2)c2cc(Cl)cc(N3CCN(C)CC3)c2S1(=O)=O [Example 28, 4-Benzyl-6-chloro-2-(2-methoxy-phenyl)-8-(4-methyl-piperazin-1-yl)-1,1-dioxo-1,4-dihydro-2H-1λ^6-benzo[1,2,4]thiadiazin-3-one] | 7.1 nM | 119 to 120 °C | –
18 | COc1cccc(N2C(=O)N(Cc3ccccc3)c3cc(Cl)cc(N4CCN(C)CC4)c3S2(=O)=O)c1 [Example 29, 4-Benzyl-6-chloro-2-(3-methoxy-phenyl)-8-(4-methyl-piperazin-1-yl)-1,1-dioxo-1,4-dihydro-2H-1λ^6-benzo[1,2,4]thiadiazin-3-one] | 1.7 nM | 191 to 193 °C | –
19 | COc1ccc(N2C(=O)N(Cc3ccccc3)c3cc(Cl)cc(N4CCN(C)CC4)c3S2(=O)=O)cc1 [Example 30, 4-Benzyl-6-chloro-2-(4-methoxy-phenyl)-8-(4-methyl-piperazin-1-yl)-1,1-dioxo-1,4-dihydro-2H-1λ^6-benzo[1,2,4]thiadiazin-3-one] | 5.2 nM | 115 to 116 °C | –
20 | CN1CCN(c2cc(Cl)cc3c2S(=O)(=O)N(C)C(=O)N3C)CC1 [Example 31, 6-Chloro-2,4-dimethyl-8-(4-methyl-piperazin-1-yl)-1,1-dioxo-1,4-dihydro-2H-1λ^6-benzo[1,2,4]thiadiazin-3-one] | – | – | 745 nM
21 | CN1CCN(c2cc(Cl)cc3c2S(=O)(=O)N(C)C(=O)N3Cc2ccccc2)CC1 [Example 32, 4-Benzyl-6-chloro-2-methyl-8-(4-methyl-piperazin-1-yl)-1,1-dioxo-1,4-dihydro-2H-1λ^6-benzo[1,2,4]thiadiazin-3-one] | 4.2 nM | – | –
22 | CCCCN1C(=O)N(Cc2ccccc2)c2cc(Cl)cc(N3CCN(C)CC3)c2S1(=O)=O [Example 35, 4-Benzyl-2-butyl-6-chloro-8-(4-methyl-piperazin-1-yl)-1,1-dioxo-1,4-dihydro-2H-1λ^6-benzo[1,2,4]thiadiazin-3-one] | 1.9 nM | 116 to 118 °C | –
23 | CN1CCN(c2cc(Cl)cc3c2S(=O)(=O)N(CC2CCCCC2)C(=O)N3Cc2ccccc2)CC1 [Example 36, 4-Benzyl-6-chloro-2-cyclohexylmethyl-8-(4-methyl-piperazin-1-yl)-1,1-dioxo-1,4-dihydro-2H-1λ^6-benzo[1,2,4]thiadiazin-3-one] | 1.5 nM | 155 to 158 °C | –
24 | CCCCCCCCCCN1C(=O)N(Cc2ccccc2)c2cc(Cl)cc(N3CCN(C)CC3)c2S1(=O)=O [Example 40, 4-Benzyl-6-chloro-2-decyl-8-(4-methyl-piperazin-1-yl)-1,1-dioxo-1,4-dihydro-2H-1λ^6-benzo[1,2,4]thiadiazin-3-one] | 4.5 nM | – | –
25 | O=C1N(Cc2ccccc2)c2cc(Cl)cc(N3CCNCC3)c2S(=O)(=O)N1Cc1cccc(F)c1 [Example 46, 4-Benzyl-6-chloro-2-(3-fluoro-benzyl)-1,1-dioxo-8-piperazin-1-yl-1,4-dihydro-2H-1λ^6-benzo[1,2,4]thiadiazin-3-one] | – | 154 to 155 °C | –
26 | CCCN1C(=O)N(Cc2ccccc2)c2cc(Cl)cc(N3CCNCC3)c2S1(=O)=O [Example 65, 4-Benzyl-6-chloro-2-propyl-1,1-dioxo-8-piperazin-1-yl-1,4-dihydro-2H-1λ^6-benzo[1,2,4]thiadiazin-3-one] | – | 148 to 150 °C | –
27 | CCCCCCCCCCN1C(=O)N(Cc2ccccc2)c2cc(Cl)cc(N3CCNCC3)c2S1(=O)=O [Example 67, 4-Benzyl-6-chloro-2-decyl-1,1-dioxo-8-piperazin-1-yl-1,4-dihydro-2H-1λ^6-benzo[1,2,4]thiadiazin-3-one] | 3 nM | – | –
28 | O=C1N(Cc2ccccc2)c2cc(Cl)cc(N3CCN4CCC[C@@H]4C3)c2S(=O)(=O)N1Cc1ccccc1Cl [Example 74, 4-Benzyl-6-chloro-2-(2-chloro-benzyl)-8-[(6R)-1,4-diazabicyclo[4.3.0]non-4-yl]-1,1-dioxo-1,4-dihydro-2H-1λ^6-benzo[1,2,4]thiadiazin-3-one] | – | 114 to 116 °C | –

Source: US20100035866A1, “NOVEL SUBSTITUTED-1, 1-DIOXO-BENZO[1,2,4]THIADIAZIN-3ONES, PREPARATION METHOD THEREOF, AND PHARMACEUTICAL COMPOSITION CONTAINING THE SAME” (KOREA RESEARCH INSTITUTE OF CHEMICAL TECHNOLOGY, priority 2006, published 2010)
